# From patent publication US10413632B2, “Cement products and methods of making and using the same” (Pioneer Surgical Technology, Inc., priority 2007, dated 2019)
# Text: The side chain amino groups of certain amino acid can serve as nucleophiles for the Michael addition to enones. Generally, amino acids are flaky or crystalline solids at room temperature, thus, they should be dissolved in a liquid to effectively participate in the set reaction.
solubility (w/w) in DAB,solubility (w/w) in PEI,Compound
,18.8%,"Nc1nc(N)c2nc[nH]c2n1 [DAP, diaminopurine]"
28%,61.24%,"N[C@@H](Cc1ccccc1)C(=O)O [PHE, L-phenylalanine]"
29.4%,46.46%,"N[C@@H](Cc1c[nH]c2ccccc12)C(=O)O [TRP, L-Tryptophan]"

# Further lines, the molecule ahead of its results:
Compound,solubility (w/w) in DAB,solubility (w/w) in PEI
"N[C@@H](CS)C(=O)O [CYS, L-cysteine]",19.5%,18.2%
"Nc1cc(O)nc(N)n1 [DAHP, 2,4-diamino-6-hydroxypyrimidine]",,13.8%
"NCCCC[C@H](N)C(=O)O [LYS, L-Lysine]",16.1%,
